# Biological target: human recombinant GPR65 (Homo sapiens, UniProt Q8IYL9)
# Assay: Human GPR65 cAMP HTRF antagonist assay
# Type: cell-based
# Settings: not given
# Outline: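 1321N1 astrocytoma cells stably expressing hrGPR65, with IBMX and EDTA, were preincubated with compound 30 min at room temperature, then acid-activated at assay pH 7.2 (control pH 7.9) for 30 min. cAMP read by HTRF (665/620 nm ratio); IC50 from 4-parameter fit normalised to high/low controls.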
# human recombinant GPR65, sequence (Q8IYL9 whole entry): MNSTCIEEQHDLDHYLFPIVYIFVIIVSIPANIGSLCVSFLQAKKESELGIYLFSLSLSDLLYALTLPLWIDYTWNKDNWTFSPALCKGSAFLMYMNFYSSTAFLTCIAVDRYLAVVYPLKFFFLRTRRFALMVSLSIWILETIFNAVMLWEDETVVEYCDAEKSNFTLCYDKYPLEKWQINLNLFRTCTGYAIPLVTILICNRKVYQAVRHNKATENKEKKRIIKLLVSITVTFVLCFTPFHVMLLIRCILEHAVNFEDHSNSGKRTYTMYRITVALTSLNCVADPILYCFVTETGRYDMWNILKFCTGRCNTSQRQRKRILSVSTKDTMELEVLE
row,Compound,IC50 [nM]
1,"Cn1ncc(-c2cc(F)c(NC(=O)N3[C@H]4CC[C@@H]3c3n[nH]c(=O)cc3C4)cc2Cl)n1 [Compound 139, (6S,9R)-N-(5-Chloro-2-fluoro-4-(2-methyl-2H-1,2,3-triazol-4-yl)phenyl)-3-oxo-3,5,6,7,8,9-hexahydro-2H-6,9-epiminocyclohepta[c]pyridazine-10-carboxamide]",< 500
2,"O=C(Nc1cc(Cl)c(-c2cc(F)cnc2F)cc1F)N1[C@H]2CC[C@@H]1c1ccnc(F)c1C2 [Compound 260, (5R,8S)-N-(5-Chloro-4-(2,5-difluoropyridin-3-yl)-2-fluorophenyl)-1-fluoro-6,7,8,9-tetrahydro-5H-5,8-epiminocyclohepta[c]pyridine-10-carboxamide]",< 500
3,"O=C(Nc1cc(C(F)(F)F)on1)N1[C@H]2CC[C@@H]1c1n[nH]c(=O)cc1C2 [Compound 110, (6S,9R)-3-Oxo-N-(5-(trifluoromethyl)isoxazol-3-yl)-3,5,6,7,8,9-hexahydro-2H-6,9-epiminocyclohepta[c]pyridazine-10-carboxamide]",< 500
4,"O=C(Nc1cc(Cl)c(-c2cncc(F)c2)cc1F)N1[C@H]2CC[C@@H]1c1n[nH]c(=O)cc1C2 [Compound 126, (6S,9R)-N-(5-Chloro-2-fluoro-4-(5-fluoropyridin-3-yl)phenyl)-3-oxo-3,5,6,7,8,9-hexahydro-2H-6,9-epiminocyclohepta[c]pyridazine-10-carboxamide]",< 500
5,"O=C(Nc1cc(Cl)c(COc2ccc3nonc3c2)cc1F)N1[C@H]2CC[C@@H]1c1n[nH]c(=O)cc1C2 [Compound 302, (6S,9R)-N-(4-((Benzo[c][1,2,5]oxadiazol-5-yloxy)methyl)-5-chloro-2-fluorophenyl)-3-oxo-3,5,6,7,8,9-hexahydro-2H-6,9-epiminocyclohepta[c]pyridazine-10-carboxamide]",< 500
6,"Cc1nc2cc(-c3cc(F)c(NC(=O)N4[C@H]5CC[C@@H]4c4ccnc(F)c4C5)cc3Cl)ccc2o1 [Compound 233, (5R,8S)-N-(5-Chloro-2-fluoro-4-(2-methylbenzo[d]oxazol-5-yl)phenyl)-1-fluoro-6,7,8,9-tetrahydro-5H-5,8-epiminocyclohepta[c]pyridine-10-carboxamide]",< 500
7,"O=C(Nc1cc(Cl)c(Oc2ccc(F)nc2)cc1F)N1[C@H]2CC[C@@H]1c1n[nH]c(=O)cc1C2 [Compound 225, (6S,9R)—N-(5-Chloro-2-fluoro-4-((6-fluoropyridin-3-yl)oxy)phenyl)-3-oxo-3,5,6,7,8,9-hexahydro-2H-6,9-epiminocyclohepta[c]pyridazine-10-carboxamide]",< 500
8,"O=C(Nc1cc(Cl)c(-c2cccnc2)cc1F)N1[C@H]2CC[C@@H]1c1n[nH]c(=O)cc1C2 [Compound 136, (6S,9R)-N-(5-Chloro-2-fluoro-4-(pyridin-3-yl)phenyl)-3-oxo-3,5,6,7,8,9-hexahydro-2H-6,9-epiminocyclohepta[c]pyridazine-10-carboxamide]",< 500
9,"O=C(Nc1cc(Cl)c(-c2ccc(OCCF)nc2)cc1F)N1[C@H]2CC[C@@H]1c1n[nH]c(=O)cc1C2 [Compound 291, (6S,9R)-N-(5-Chloro-2-fluoro-4-(6-(2-fluoroethoxy)pyridin-3-yl)phenyl)-3-oxo-3,5,6,7,8,9-hexahydro-2H-6,9-epiminocyclohepta[c]pyridazine-10-carboxamide]",< 500
10,"O=C(Nc1ccc(OC(F)(F)F)c(Cl)c1)N1[C@H]2CC[C@@H]1c1n[nH]c(=O)cc1C2 [Compound 46, (6S,9R)-N-(3-Chloro-4-(trifluoromethoxy)phenyl)-3-oxo-3,5,6,7,8,9-hexahydro-2H-6,9-epiminocyclohepta[c]pyridazine-10-carboxamide]",< 500
11,"O=C(Nc1cc(Cl)c(I)cc1F)N1C2CCC1c1n[nH]c(=O)cc1C2 (racemic) [Compound 74, (±)-N-(5-Chloro-2-fluoro-4-iodophenyl)-3-oxo-3,5,6,7,8,9-hexahydro-2H-6,9-epiminocyclohepta[c]pyridazine-10-carboxamide]",< 500
12,"O=C(Nc1cc(Cl)c(-c2ccncc2F)cc1F)N1[C@H]2CC[C@@H]1c1n[nH]c(=O)cc1C2 [Compound 138, (6S,9R)-N-(5-Chloro-2-fluoro-4-(3-fluoropyridin-4-yl)phenyl)-3-oxo-3,5,6,7,8,9-hexahydro-2H-6,9-epiminocyclohepta[c]pyridazine-10-carboxamide]",< 500
13,"O=C(Nc1cc(-c2ccc3nonc3c2)c(C(F)(F)F)cc1F)N1[C@H]2CC[C@@H]1c1ccnc(F)c1C2 [Compound 253, (5R,8S)-N-(5-(benzo[c][1,2,5]oxadiazol-5-yl)-2-fluoro-4-(trifluoromethyl)phenyl)-1-fluoro-6,7,8,9-tetrahydro-5H-5,8-epiminocyclohepta[c]pyridine-10-carboxamide]",< 500
14,"O=C(Nc1cc(Cl)c(-c2ccc(OC3CC(F)(F)C3)nc2)cc1F)N1[C@H]2CC[C@@H]1c1n[nH]c(=O)cc1C2 [Compound 292, (6S,9R)-N-(5-Chloro-4-(6-(3,3-difluorocyclobutoxy)pyridin-3-yl)-2-fluorophenyl)-3-oxo-3,5,6,7,8,9-hexahydro-2H-6,9-epiminocyclohepta[c]pyridazine-10-carboxamide]",< 500
15,"O=C(Nc1cc(Cl)c(-c2cc(F)c3nonc3c2)cc1F)N1[C@H]2CC[C@@H]1c1n[nH]c(=O)cc1C2 [Compound 323, (6S,9R)-N-(5-Chloro-2-fluoro-4-(7-fluorobenzo[c][1,2,5]oxadiazol-5-yl)phenyl)-3-oxo-3,5,6,7,8,9-hexahydro-2H-6,9-epiminocyclohepta[c]pyridazine-10-carboxamide]",< 500
16,"Cn1ncc2cc(-c3cc(F)c(NC(=O)N4[C@H]5CC[C@@H]4c4n[nH]c(=O)cc4C5)cc3Cl)ccc21 [Compound 164, (6S,9R)-N-(5-Chloro-2-fluoro-4-(1-methyl-1H-indazol-5-yl)phenyl)-3-oxo-3,5,6,7,8,9-hexahydro-2H-6,9-epiminocyclohepta[c]pyridazine-10-carboxamide]",< 500
17,"CO[C@H]1CC[C@@H](Oc2ccc(-c3cc(F)c(NC(=O)N4[C@H]5CC[C@@H]4c4n[nH]c(=O)cc4C5)cc3Cl)cn2)CC1 [Compound 343, (6S,9R)-N-(5-Chloro-2-fluoro-4-(6-(((1s,4s)-4-methoxycyclohexyl)oxy)pyridin-3-yl)phenyl)-3-oxo-3,5,6,7,8,9-hexahydro-2H-6,9-epiminocyclohepta[c]pyridazine-10-carboxamide]",< 500
18,"O=C(Nc1cc(Cl)c(C2CC2)cc1F)N1[C@H]2CC[C@@H]1c1c[nH]c(=O)cc1C2 [Compound 82, (6S,9R)-N-(5-Chloro-4-cyclopropyl-2-fluorophenyl)-3-oxo-3,5,6,7,8,9-hexahydro-2H-6,9-epiminocyclohepta[c]pyridine-10-carboxamide]",< 500
19,"O=C(Nc1cc(Cl)c(C(F)(F)F)cc1F)N1[C@@H]2CC[C@H]1C(F)(F)c1c2ccnc1F [Compound 227, (5R,8S)-N-(5-Chloro-2-fluoro-4-(trifluoromethyl)phenyl)-1,9,9-trifluoro-6,7,8,9-tetrahydro-5H-5,8-epiminocyclohepta[c]pyridine-10-carboxamide]",< 500

# Same assay, conditions: 1321N1-hrGPR65 cells, cAMP HTRF, assay pH 7.2; read-out: hGPR65 IC50 (Activity of selected compounds according to the invention)
row,Compound,IC50 [nM]
1,"O=C(Nc1cc(I)c(Cl)cc1F)N1[C@H]2CC[C@@H]1c1ccnc(F)c1C2 [Compound 78, (5R,8S)-N-(4-Chloro-2-fluoro-5-iodophenyl)-1-fluoro-6,7,8,9-tetrahydro-5H-5,8-epiminocyclohepta[c]pyridine-10-carboxamide]",500 to 5000
2,"O=C(Nc1cc(Cl)c(C(F)(F)F)cc1F)N1[C@@H]2CC[C@H]1c1c[nH]c(=O)nc1C2 [Compound 25, (5S,8R)-N-(5-Chloro-2-fluoro-4-(trifluoromethyl)phenyl)-2-oxo-3,5,6,7,8,9-hexahydro-2H-5,8-epiminocyclohepta[d]pyrimidine-10-carboxamide]",500 to 5000
3,"COc1cnccc1-c1cc(F)c(NC(=O)N2[C@H]3CC[C@@H]2c2n[nH]c(=O)cc2C3)cc1Cl [Compound 299, (6S,9R)-N-(5-Chloro-2-fluoro-4-(3-methoxypyridin-4-yl)phenyl)-3-oxo-3,5,6,7,8,9-hexahydro-2H-6,9-epiminocyclohepta[c]pyridazine-10-carboxamide]",500 to 5000
4,"O=C(Nc1cc(Cl)c(-c2ccc3n[nH]nc3c2)cc1F)N1[C@H]2CC[C@@H]1c1n[nH]c(=O)cc1C2 [Compound 140, (6S,9R)-N-(4-(2H-Benzo[d][1,2,3]triazol-5-yl)-5-chloro-2-fluorophenyl)-3-oxo-3,5,6,7,8,9-hexahydro-2H-6,9-epiminocyclohepta[c]pyridazine-10-carboxamide]",500 to 5000
5,"O=C(Nc1cc(Cl)c(Cl)cc1F)N1[C@H]2CC[C@@H]1c1c(C#CCO)cnc(F)c1C2 [Compound 107, (5R,8S)—N-(4,5-Dichloro-2-fluorophenyl)-1-fluoro-4-(3-hydroxyprop-1-yn-1-yl)-6,7,8,9-tetrahydro-5H-5,8-epiminocyclohepta[c]pyridine-10-carboxamide]",500 to 5000
6,"NC(=O)c1ccc(-c2cc(F)c(NC(=O)N3[C@H]4CC[C@@H]3c3n[nH]c(=O)cc3C4)cc2Cl)cc1 [Compound 129, (6S,9R)-N-(4′-Carbamoyl-2-chloro-5-fluoro-[1,1′-biphenyl]-4-yl)-3-oxo-3,5,6,7,8,9-hexahydro-2H-6,9-epiminocyclohepta[c]pyridazine-10-carboxamide]",500 to 5000
7,"O=C(Nc1cc(Cl)c(C(F)(F)F)cn1)N1C2CCC1c1n[nH]c(=O)cc1C2 (racemic) [Compound 12, (±)-N-(4-Chloro-5-(trifluoromethyl)pyridin-2-yl)-3-oxo-3,5,6,7,8,9-hexahydro-2H-6,9-epiminocyclohepta[c]pyridazine-10-carboxamide]",500 to 5000
8,"Cn1nc2c(cc1=O)CC1CCC2N1C(=O)Nc1cc(Cl)c(Cl)cc1F (racemic) [Compound 83, (±)-N-(4,5-Dichloro-2-fluorophenyl)-2-methyl-3-oxo-3,5,6,7,8,9-hexahydro-2H-6,9-epiminocyclohepta[c]pyridazine-10-carboxamide]",500 to 5000
